From patent US20160200716A1, “COBICISTAT DICHLOHYDRATE SALT” (ASSIA CHEMICAL INDUSTRIES LTD., priority 2012, published 2016)
Structures can show the parent of a compound that is named as a salt.

Key:
[1] = Measurements of bulk density of mono- and dihydrochloride salts of Cobicistat; format: physicochemical; conditions: for volume filled by the salt in a glass cylinder (bulk density): about 0.30 g freely poured into glass cylinder without compaction, FIG. 12
Source text: Measurements of Bulk Density of Mono-and Dihydrochloride Salts of Cobicistat:
Cobicistat monohydrochloride and dihydrochloride, prepared according to examples 7 and 5 respectively, (about 0.30 g) were freely poured into two glass cylinders without compaction. While 0.30 g of Cobicistat monohydrochloride filled a volume of almost 5m1, 0.30 g of Cobicistat dihydrochloride filled a volume of less than 2m1.

[2] = Powder flowability / handling properties of Cobicistat hydrochloride salts; format: physicochemical; conditions: particle-shaped morphology, FIG. 9

Structure (SMILES)	volume filled by the salt in a glass cylinder (bulk density) [1]	bulk density compared with the monohydrochloride salt ([1]; as demonstrated in FIG. 12)	flowability of the powder material [2]
CC(C)c1nc(CN(C)C(=O)N[C@@H](CCN2CCOCC2)C(=O)N[C@H](CC[C@H](Cc2ccccc2)NC(=O)OCc2cncs2)Cc2ccccc2)cs1 [Cobicistat dihydrochloride]	less than 2 m1	substantially higher	highly flowable
CC(C)c1nc(CN(C)C(=O)N[C@@H](CCN2CCOCC2)C(=O)N[C@H](CC[C@H](Cc2ccccc2)NC(=O)OCc2cncs2)Cc2ccccc2)cs1 [Cobicistat monohydrochloride, reference compound]	~5 m1	–	–
